Experimental findings from US8791108B2, “Inhibitors of human immunodeficiency virus replication” (priority 2011, dated 2014) are described below.

For the first assay, the system named is recombinant NL-Rluc virus. Briefly: Inhibition of HIV replication (NL-RLuc luciferase reporter virus, MT-2 cells). As to conditions: Human immunodeficiency virus 1, MT2, 120 h, read-out: Activity. It is filed as cell-based.
Regarding `Cc1nc2cc(C(=O)N3CCN(c4ccc(Cl)cc4)CC3)nn2c(-c2cc(F)c3c(c2C)CCCO3)c1[C@H](OC(C)(C)C)C(=O)O` [Example 116, (2S)-2-(tert-butoxy)-2-(2-(4-(4-chlorophenyl)piperazine-1-carbonyl)-7-(8-fluoro-5-methylchroman-6-yl)-5-methylpyrazolo[1,5-a]pyrimidin-6-yl)acetic acid], the EC50 was less than 0.1 µM.

In the case of `Cc1nc2cc(C(=O)NCc3ccc(F)cc3-n3cncn3)nn2c(-c2cc(F)c3c(c2C)CCCO3)c1[C@H](OC(C)(C)C)C(=O)O` [Example 11, (2S)-2-(tert-butoxy)-2-(2-((4-fluoro-2-(1H-1,2,4-triazol-1-yl)benzyl)carbamoyl)-7-(8-fluoro-5-methylchroman-6-yl)-5-methylpyrazolo[1,5-a]pyrimidin-6-yl)acetic acid], the EC50 was 0.1 to 1 µM.

Take `Cc1cc(CNC(=O)c2cc3nc(C)c([C@H](OC(C)(C)C)C(=O)O)c(-c4cc5c(cc4F)OCCN5)n3n2)ccc1F` [Example 145, (2S)-2-(tert-Butoxy)-2-(7-(7-fluoro-3,4-dihydro-2H-benzo[b][1,4]oxazin-6-yl)-2-((4-fluoro-3-methylbenzyl)carbamoyl)-5-methylpyrazolo[1,5-a]pyrimidin-6-yl)acetic acid]: the EC50 is less than 0.1 µM.

In the case of `Cc1nc2cc(C(=O)NCc3csc(-c4ccccc4)n3)nn2c(-c2cc(F)c3c(c2C)CCCO3)c1[C@H](OC(C)(C)C)C(=O)O` [Example 45, (2S)-2-(tert-butoxy)-2-(7-(8-fluoro-5-methylchroman-6-yl)-5-methyl-2-(((2-phenylthiazol-4-yl)methyl)carbamoyl)pyrazolo[1,5-a]pyrimidin-6-yl)acetic acid], the EC50 is less than 0.1 µM.

On to `Cc1nc2cc(C(=O)N(C)Cc3ccc(F)cc3)nn2c(-c2cc(F)c3c(c2C)CCCO3)c1[C@H](OC(C)(C)C)C(=O)O` [Example 8, (2S)-2-(tert-butoxy)-2-(7-(8-fluoro-5-methylchroman-6-yl)-2-((4-fluorobenzyl)(methyl)carbamoyl)-5-methylpyrazolo[1,5-a]pyrimidin-6-yl)acetic acid], for which the EC50 was less than 0.1 µM.

`Cc1nc2cc(C(=O)N(C)CCc3ccccn3)nn2c(-c2cc(F)c3c(c2C)CCCO3)c1[C@H](OC(C)(C)C)C(=O)O` [Example 89, (2S)-2-(tert-butoxy)-2-(7-(8-fluoro-5-methylchroman-6-yl)-5-methyl-2-(methyl(2-(pyridin-2-yl)ethyl)carbamoyl)pyrazolo[1,5-a]pyrimidin-6-yl)acetic acid]: the EC50 was greater than 1 µM.

`Cc1nc2cc(C(=O)NCc3ccc(Oc4ccccc4)cc3)nn2c(-c2cc(F)c3c(c2C)CCCO3)c1[C@H](OC(C)(C)C)C(=O)O` [Example 68, (2S)-2-(tert-butoxy)-2-(7-(8-fluoro-5-methylchroman-6-yl)-5-methyl-2-((4-phenoxybenzyl)carbamoyl)pyrazolo[1,5-a]pyrimidin-6-yl)acetic acid]: the EC50 was less than 0.1 µM.

With `Cc1nc2cc(C(=O)NS(=O)(=O)c3ccccc3)nn2c(-c2cc(F)c3c(c2C)CCCO3)c1[C@H](OC(C)(C)C)C(=O)O` [Example 13, (2S)-2-(tert-butoxy)-2-(7-(8-fluoro-5-methylchroman-6-yl)-5-methyl-2-((phenylsulfonyl)carbamoyl)pyrazolo[1,5-a]pyrimidin-6-yl)acetic acid], the EC50 was greater than 1 µM.

Regarding `Cc1nc2cc(C(=O)NCc3cccc(C(F)(F)F)c3)nn2c(-c2cc(F)c3c(c2C)CCCO3)c1[C@H](OC(C)(C)C)C(=O)O` [Example 64], the EC50 is less than 0.1 µM.

Regarding `COc1cccc(CNC(=O)c2cc3nc(C)c([C@H](OC(C)(C)C)C(=O)O)c(-c4cc(F)c5c(c4C)CCCO5)n3n2)c1` [Example 71], the EC50 is less than 0.1 µM.

With `Cc1nc2cc(C(=O)NCCCN3CCCC3=O)nn2c(-c2cc(F)c3c(c2C)CCCO3)c1[C@H](OC(C)(C)C)C(=O)O` [Example 76], the EC50 was greater than 1 µM.

The same assay, now with this note: Human immunodeficiency virus 1, MT2, 120 h, read-out: EC50 μM.
`Cc1nc2cc(C(=O)NS(=O)(=O)c3ccccc3)nn2c(-c2cc(F)c3c(c2C)CCCO3)c1[C@H](OC(C)(C)C)C(=O)O` [Example 13, (2S)-2-(tert-butoxy)-2-(7-(8-fluoro-5-methylchroman-6-yl)-5-methyl-2-((phenylsulfonyl)carbamoyl)pyrazolo[1,5-a]pyrimidin-6-yl)acetic acid]: the EC50 was 40 µM.
